Activity calls are given as the source filed them. No cut-off for these calls is given here. Positions of bridges follow the written chain, without caps; N, C: chain ends. Non-standard residues stand in square brackets, D forms with d. Residues, ends and D or L forms follow the SMILES beside them. NMeA = CN[C@@H](C)C(=O)O; Mpa = O=C(O)CCS; Sar = CNCC(=O)O
Assays:
Rattus norvegicus [1] = species on record: Rattus norvegicus; assay: Tested for antidiuretic activity in rat; type: functional, Urine; set-up: unit not given here
[2] = Tested for the ratio of uterotonic potency to antidiuretic potency(O/A); type: functional, Urine
Rattus norvegicus [3] = species on record: Rattus norvegicus; assay: The compound was tested for milk ejection activity in rat; type: functional; set-up: unit not given here
Rattus norvegicus [4] = species on record: Rattus norvegicus; assay: Uterotonic activity in vitro in isolated rat uterus in absence of magnesium; type: functional; set-up: unit not given here
Rattus norvegicus [5] = species on record: Rattus norvegicus; assay: Uterotonic activity in vitro in isolated rat uterus in presence of magnesium; type: functional
[6] = Tested for the ratio of uterotonic potency to pressor potency(O/P); type: functional
[7] = Tested for the ratio of antidiuretic potency to uterotonic potency(A/P); type: functional
[8] = Tested for the ratio of antidiuretic potency to uterotonic potency(A/O); type: functional, Urine
Rattus norvegicus [9] = species on record: Rattus norvegicus; assay: Tested for vasopressor activity in rat; type: functional; set-up: unit not given here
Rattus norvegicus [10] = species on record: Rattus norvegicus; assay: Tested for vasopressor activity in rat;N-None; type: functional, organism-based
Rattus norvegicus [11] = species on record: Rattus norvegicus; assay: Tested for vasopressor activity in rat; N-None; type: functional, organism-based

| SMILES | Activity (Rattus norvegicus [1]) | Activity (Rattus norvegicus [3]) | Activity (Rattus norvegicus [4]) | Activity (Rattus norvegicus [5]) [IU/mg] | Activity (Rattus norvegicus [9]) | also measured |
| --- | --- | --- | --- | --- | --- | --- |
| CC[C@H](C)[C@@H]1NC(=O)[C@H](Cc2ccc(O)cc2)NC(=O)[C@@H](N)CSSC[C@@H](C(=O)N(C)[C@@H](C)C(=O)N[C@@H](CC(C)C)C(=O)NCC(N)=O)NC(=O)[C@H](CC(N)=O)NC(=O)[C@H](CCC(N)=O)NC1=O | 0.12 | 402 | 62 | 184 |  | Ratio [2]: 620 |
| CC[C@H](C)[C@@H]1NC(=O)[C@H](Cc2ccc(O)cc2)NC(=O)[C@@H](N)CSSC[C@@H](C(=O)N2CCC[C@H]2C(=O)N[C@@H](CC(C)C)C(=O)NCC(N)=O)NC(=O)[C@H](CC(N)=O)NC(=O)[C@H](CCC(N)=O)NC1=O [OXYTOCIN] |  |  |  | 486 |  | Ratio [6]: 120 |
| C[C@@H](C(=O)N[C@@H](CCCN=C(N)N)C(=O)NCC(N)=O)N(C)C(=O)[C@@H]1CSSCCC(=O)N[C@@H](Cc2ccc(O)cc2)C(=O)N[C@@H](Cc2ccccc2)C(=O)N[C@@H](CCC(N)=O)C(=O)N[C@@H](CC(N)=O)C(=O)N1 ([Mpa]YFQNC[NMeA]RG-NH2; disulfide 1-6) | 35 | 1.7 | 113 | 1.3 | 8 | Ratio [7]: 102; Ratio [8]: 78 |
| CC[C@H](C)[C@@H]1NC(=O)[C@H](Cc2ccc(O)cc2)NC(=O)CCSSC[C@@H](C(=O)N(C)CC(=O)N[C@@H](CC(C)C)C(=O)NCC(N)=O)NC(=O)[C@H](CC(N)=O)NC(=O)[C@H](CCC(N)=O)NC1=O |  | 498 | 745 | 1350 |  |  |
| CC[C@H](C)[C@@H]1NC(=O)[C@H](Cc2ccc(O)cc2)NC(=O)CCSSC[C@H](C(=O)N2CCC[C@H]2C(=O)N[C@@H](CC(C)C)C(=O)NCC(N)=O)NC(=O)[C@H](CC(N)=O)NC(=O)[C@H](CCC(N)=O)NC1=O |  |  |  |  |  | Ratio [6]: 120 |
| CC[C@H](C)[C@@H]1NC(=O)[C@@H](Cc2ccc(O)cc2)NC(=O)[C@H](N)CSSC[C@@H](C(=O)N(C)[C@@H](C)C(=O)N[C@@H](CC(C)C)C(=O)NCC(N)=O)NC(=O)[C@H](CC(N)=O)NC(=O)[C@@H](CCC(N)=O)NC1=O |  |  |  |  |  | Activity (Rattus norvegicus [10]): inactive |
| CC[C@H](C)[C@@H]1NC(=O)[C@H](Cc2ccc(O)cc2)NC(=O)[C@@H](N)CSSC[C@@H](C(=O)N[C@@H](C)C(=O)N[C@@H](CC(C)C)C(=O)NCC(N)=O)NC(=O)[C@H](CC(N)=O)NC(=O)[C@H](CCC(N)=O)NC1=O | 0.08 |  | 22 |  | 0.4 | Ratio [2]: 275 |
| CC[C@H](C)[C@@H]1NC(=O)[C@@H](Cc2ccc(O)cc2)NC(=O)[C@H](N)CSSC[C@@H](C(=O)N[C@@H](C)C(=O)N[C@@H](CC(C)C)C(=O)NCC(N)=O)NC(=O)[C@H](CC(N)=O)NC(=O)[C@@H](CCC(N)=O)NC1=O |  |  |  |  |  | Ratio [6]: 55 |
| CN(CC(=O)N[C@@H](CCCN=C(N)N)C(=O)NCC(N)=O)C(=O)[C@@H]1CSSCCC(=O)N[C@@H](Cc2ccc(O)cc2)C(=O)N[C@@H](Cc2ccccc2)C(=O)N[C@@H](CCC(N)=O)C(=O)N[C@@H](CC(N)=O)C(=O)N1 ([Mpa]YFQNC[Sar]RG-NH2; disulfide 1-6) | 193 | 38.2 | 580 | 0.84 | 49 | Ratio [7]: 690; Ratio [8]: 15 |
| CC[C@H](C)[C@@H]1NC(=O)[C@@H](Cc2ccc(O)cc2)NC(=O)[C@H](N)CSSC[C@@H](C(=O)NCC(=O)N[C@@H](CC(C)C)C(=O)NCC(N)=O)NC(=O)[C@H](CC(N)=O)NC(=O)[C@@H](CCC(N)=O)NC1=O |  |  |  |  |  | Ratio [6]: 9300 |
| CC[C@H](C)[C@@H]1NC(=O)[C@H](Cc2ccc(O)cc2)NC(=O)[C@@H](N)CSSC[C@@H](C(=O)N(C)CC(=O)N[C@@H](CC(C)C)C(=O)NCC(N)=O)NC(=O)[C@H](CC(N)=O)NC(=O)[C@H](CCC(N)=O)NC1=O (H-CYIQNC[Sar]LG-NH2; disulfide 1-6) | 0.18 | 564 | 459 | 609 |  | Ratio [2]: 2550 |
| CC[C@H](C)[C@@H]1NC(=O)[C@@H](Cc2ccc(O)cc2)NC(=O)CCSSC[C@@H](C(=O)N(C)CC(=O)N[C@@H](CC(C)C)C(=O)NCC(N)=O)NC(=O)[C@H](CC(N)=O)NC(=O)[C@@H](CCC(N)=O)NC1=O |  |  |  |  |  | Activity (Rattus norvegicus [11]): inactive |
| CN(CC(=O)N[C@@H](CCCN=C(N)N)C(=O)NCC(N)=O)C(=O)[C@@H]1CSSC[C@H](N)C(=O)N[C@@H](Cc2ccc(O)cc2)C(=O)N[C@@H](Cc2ccccc2)C(=O)N[C@@H](CCC(N)=O)C(=O)N[C@@H](CC(N)=O)C(=O)N1 (H-CYFQNC[Sar]RG-NH2; disulfide 1-6) | 110 | 9.3 | 188 | 3.6 | 36 | Ratio [7]: 52; Ratio [8]: 20 |
| CC[C@H](C)[C@@H]1NC(=O)[C@H](Cc2ccc(O)cc2)NC(=O)CCSSC[C@@H](C(=O)N(C)[C@@H](C)C(=O)N[C@@H](CC(C)C)C(=O)NCC(N)=O)NC(=O)[C@H](CC(N)=O)NC(=O)[C@H](CCC(N)=O)NC1=O ([Mpa]YIQNC[NMeA]LG-NH2; disulfide 1-6) |  | 157 | 98 | 274 |  |  |
| CC[C@H](C)[C@@H]1NC(=O)[C@H](Cc2ccc(O)cc2)NC(=O)[C@@H](N)CSSC[C@@H](C(=O)NCC(=O)N[C@@H](CC(C)C)C(=O)NCC(N)=O)NC(=O)[C@H](CC(N)=O)NC(=O)[C@H](CCC(N)=O)NC1=O | 0.0056 | 392 | 93 |  | 0.01 | Ratio [2]: 16600 |
| C[C@@H](C(=O)N[C@@H](CCCN=C(N)N)C(=O)NCC(N)=O)N(C)C(=O)[C@@H]1CSSC[C@H](N)C(=O)N[C@@H](Cc2ccc(O)cc2)C(=O)N[C@@H](Cc2ccccc2)C(=O)N[C@@H](CCC(N)=O)C(=O)N[C@@H](CC(N)=O)C(=O)N1 (H-CYFQNC[NMeA]RG-NH2; disulfide 1-6) | 35 | 2.8 | 343 | 10.6 | 4.1 | Ratio [7]: 32; Ratio [8]: 122 |
| N=C(N)NCCC[C@H](NC(=O)[C@@H]1CCCN1C(=O)[C@@H]1CSSCCC(=O)N[C@@H](Cc2ccc(O)cc2)C(=O)N[C@@H](Cc2ccccc2)C(=O)N[C@@H](CCC(N)=O)C(=O)N[C@@H](CC(N)=O)C(=O)N1)C(=O)NCC(N)=O [DESMOPRESSIN] |  |  |  | 346 |  | Ratio [7]: 5; Ratio [8]: 60 |
| NC(=O)CC[C@@H]1NC(=O)[C@H](Cc2ccccc2)NC(=O)[C@H](Cc2ccc(O)cc2)NC(=O)[C@@H](N)CSSC[C@@H](C(=O)NCC(=O)N[C@@H](CCCN=C(N)N)C(=O)NCC(N)=O)NC(=O)[C@H](CC(N)=O)NC1=O (H-CYFQNCGRG-NH2; disulfide 1-6) |  | 0.1 |  | 0.01 |  |  |
| CC[C@H](C)[C@@H]1NC(=O)[C@H](Cc2ccc(O)cc2)NC(=O)CCSSC[C@@H](C(=O)N2CCC[C@H]2C(=O)N[C@@H](CC(C)C)C(=O)NCC(N)=O)NC(=O)[C@H](CC(N)=O)NC(=O)[C@H](CCC(N)=O)NC1=O [DEMOXYTOCIN] |  |  |  |  |  | Ratio [2]: 130 |

From ChEMBL document CHEMBL1122363, “Synthesis and some pharmacological properties of oxytocin and vasopressin analogues with sarcosine or N-methyl-L-alanine in position 7” (1983)
